Where two headings read alike, the source gives them in different places.
How the values were obtained:
[1] = system: WA09 human embryonic stem (hES) cells; assay: PLS-DA prediction of teratogenicity from secretome of treated hES cells (Example 9); conditions: DevTox pharmaceutical
Source text: (§1) These included 11 known teratogens and 11 known non-teratogens. The current model is based on the mean fold change (treatment versus its associated intra-experimental control) of 15 metabolites common among the secretome of hES cells treated with pharmaceutical agents and unknown chemical compounds.

[2] = system: WA09 hESCs; assay: Random forest prediction of teratogenicity from metabolomics of spent media of dosed hESCs; type: cell-based, human
Protocol: WA09 hESCs, obtained from WiCell Research Institute (NIH National Stem Cell Bank, Madison, Wis.) were cultured in 6-well plates on Matrigel (BD Biosciences, San Jose, Calif.), in mTeSR1 medium (Stem Cell Technologies, Vancouver, BC) incubated at 37° C. under 5% CO2 in a Thermo Electron Form a Series II Water Jacket CO2 Incubator. hESCs were passaged every three or four days at a 1:3 or 1:6 seeding density for routine culture conditions. For dosing experiments, hESCs were passaged at a low density of 1:10 or 1:12 so that they would not require passaging during the […] dosing protocol. To passage hES cells, the StemPro® EZPassage™ disposable stem cell passaging tool (Invitrogen, Carlsbad, Calif.) was used to detach the cells from the wells. Detached cells were removed with a pipette and distributed to new Matrigel plates.
These medium controls provided baseline mass spectral data.
The 2.5 mL of spent media per well from Example 1 was added to 1.67 mL acetonitrile to make a 40% acetonitrile solution. The acetonitrile acts to “quench” the spent media sample, slowing or halting many metabolic processes and aiding in precipitation of cellular proteins. Samples were either stored at −80° C. for later analysis, or for immediate analysis, 250 μL of the quenched solution was mixed with 250 μL of water, to a final concentration of 20% acetonitrile, then added to a 3 kDa molecular weight cut-off filter spin column (Microcon YM-3 Centrifugal Filter, Millipore, Billerica, Mass.). Each sample was then centrifuged in an IEC CL31R Multispeed Centrifuge (Thermo Scientific, Waltham, Mass.) at 13,000×g at 4° C. for 200 minutes. Following centrifugation, the flow-through was saved then dried for several hours in a Savant High Capacity Speedvac Plus Concentrator. The concentrated sample was then dissolved in 50 μL of 0.1% formic acid prior to LC-MS analysis.
5 μl of each sample was injected.
Following LC-MS, chromatograms were inspected for reproducibility. LC-MS runs with total ion counts that vary by more than 25% were repeated to ensure that samples could be accurately compared. These runs were then used to create mass features that correspond to molecules detected across the different LC-MS runs. Mass features were extracted from the LC-MS data using MassHunter Qualitative Analysis software (Agilent Technologies). The following criteria were used as general guidelines, however some flexibility and optimization was needed. m/z values within the range of 75-1500, with a charge of +1 or −1, and a centroid height greater than 1000 were used to generate “mass features.” The mass peaks that pass these criteria were used to fit isotope and adduct (Na^+, K^+, and NH4^+) patterns corresponding to individual molecules, and to establish the abundance of each mass feature. The abundance is calculated by MassHunter software as the sum of the isotopic and adduct peaks that correspond to a single molecular feature. After data deconvolution, mass features showing at least two ions (e.g. (M^+H)^+ and (M^+H)^++1 or (M^+H)^+ and (M^+Na)^+) and an abundance value greater than 50000 for positive-ion mode data and 10000 in negative-ion mode data were included in the data set used for binning of the mass features.
Following feature selection by MassHunter, the data was further preprocessed by MassProfiler (Agilent) software which aligns mass features across multiple LC-MS data files. Mass features were generated for data from each drug treatment experiment (dosed and control) using the default alignment settings in MassProfiler with the requirement that a feature be present in at least 80% of the samples in one treatment. The mass feature datasets for each drug treatment experiment were further processed in a global manner using custom analysis scripts executed in the R statistical software environment. […]

[3] = blinded drugs; cited from earlier work
[4] = system: hESCs; assay: Arginine / ADMA fold change ratio (integrated EICs) in dosed hESCs vs controls; conditions: for Arg fold change/ADMA fold change: EIC areas, controls vs. dosed
Protocol: All tested chemicals were purchased from Sigma-Aldrich (St. Louis, Mo.). Cells were dosed with drugs at a concentration equivalent to their published serum circulating therapeutic dosages. Dosing was performed on hESCs in 6-well plates in triplicate, i.e. three wells per plate. The plates were dosed in triplicate, so there were a total of nine dosed wells. In parallel, there were nine “control” wells, in which hESCs were cultured with mTeSR1 containing no drug, and three wells containing Matrigel with mTeSR1 medium without hESCs that served as medium controls. Lastly, three wells of dosed medium controls were prepared, containing Matrigel, mTeSR1 and drug, but no hESCs (FIG. 1). These medium controls provided baseline mass spectral data. On the first day of dosage, the determined concentration of drug was dissolved in mTeSR1, and then 2.5 mL of this solution was added to each dosed well of hESCs. Each day, for four days, the medium was removed and new dosed medium was added. On the fourth day, the medium was removed and added to acetonitrile to make a 40% acetonitrile solution, as outlined in the Sample Preparation section below.
Mass spectrometry was performed using an Agilent QTOF LC/MS system consisting of a G6520AA QTOF high resolution mass spectrometer capable of exact mass MS and MS/MS. In order to facilitate separation of small molecules with a wide range of polarity and to allow increased retention of hydrophilic species, Hydrophilic Interaction Liquid Chromatography (Alpert 1990) was employed. Each sample was run for 30 minutes with the gradient shown in Table 3 at a flow rate of 0.5 mL/min, using 0.1% formic acid in water (Solvent A) and 0.1% formic acid in acetonitrile (Solvent B). Electrospray ionization was employed using a dual ESI source, with an Agilent isocratic pump continuously delivering an internal mass reference solution into the source at approx. 0.01 mL/min. The mass range of the instrument was set to 100-1700 Da. A Phenomenex Luna HILIC column with dimensions 3×100 mm 3 μm particle size was used and maintained at 30° C. 5 μl of each sample was injected. Data acquisition was performed with Agilent MassHunter using high-resolution exact mass conditions.
Valproate is known to cause neural tube defects (DiLiberti et al. 1984) while nitric oxide synthase activity is essential for neural tube closure (Nachmany et al. 2006).

[5] = system: mES cells; conditions: Nieden et al. 2001; cited from earlier work
[6] = system: WA09 human embryonic stem (hES) cells
Source text: as §1

[7] = high dose (H = 10x circulating dose)
[8] = low dose (L = 0.1x circulating dose)

## Cc1ncc(C[n+]2csc(CCO)c2C)c(N)n1 [Thiamine]
[1]; [7]
  % Non (PLS-DA class probability non-teratogen): 0.78
  % Ter (PLS-DA class probability teratogen): 0.22
  Confidence (difference between class probabilities): 0.56
  Prediction: Non
[1]; [8]
  % Non (PLS-DA class probability non-teratogen): 0.82
  % Ter (PLS-DA class probability teratogen): 0.18
  Confidence (difference between class probabilities): 0.64
  Prediction: Non
[2]; blind study, model trained on TS1, 142 mass features, circulating dose
  Predicted teratogenicity (random forest statistical model): Non
[3]
  Actual teratogenicity: Non
[4]
  Arg fold change/ADMA fold change: 1.00

## O=C1CCC(N2C(=O)c3ccccc3C2=O)C(=O)N1 (stereo not drawn) [Thalidomide]
[5]
  Correct classification as a teratogen by the EST: does not
[1]; [7]
  % Non (PLS-DA class probability non-teratogen): 0.3
  % Ter (PLS-DA class probability teratogen): 0.7
  Confidence (difference between class probabilities): 0.4
  Prediction: Ter
[1]; [8]
  % Non (PLS-DA class probability non-teratogen): 0.65
  % Ter (PLS-DA class probability teratogen): 0.35
  Confidence (difference between class probabilities): 0.3
  Prediction: Non
[2]
  Classification by the hSLC based assay: teratogen
[4]
  Arg/ADMA Prediction: Ter
  Arg fold change/ADMA fold change: 0.85

## Nc1ccn([C@@H]2O[C@H](CO)[C@@H](O)[C@@H]2O)c(=O)n1 [CytosineArabinoside]
[6]
  Prediction: Ter

From US8703424B2, “Predicting human developmental toxicity of pharmaceuticals using human stem-like cells and metabolomics” (Stemina Biomarker Discovery, Inc., priority 2010, dated 2014)
